Source: patent publication US8110703B2, “Retinoid derivative and pharmaceutical composition and use thereof” (Anhui Medical University, priority 2008, dated 2012)
Marks after values point to notes of the source that are not given here.

Legend:
HepG2 cells [1] = assay: AFP secretory volume of HepG2 cells; type: cell-based; details: for effects on AFP secretory volume (statistics, in words): HepG2, compared with the control groups, P less than 0.05; for AFP: HepG2 cells, DMSO
HepG2 cells [2] = assay: γ-GT specific activity of HepG2 cells; type: cell-based; details: DMSO
liver cancer HepG2 cells = assay: MTT cell growth and proliferation experiment, HepG2; type: cell-based; design: key to Inhibition Rate: (control OD570 − test OD570)/control OD570, as fraction; details: for Inhibition Rate: fraction
Protocol: (§1) 1.1 Reagents 12 retinoic acid derivatives with the final concentrations of 1 ug/ml, 5 ug/ml and 10 ug/ml are synthesized by the Pharmaceutical College of Anhui Medical University using DMSO and anhydrous ethanol, separately packaged for storage at −20° C. and kept out of the light when used, and the final concentration of DMSO is less than 0.1%. MTT is purchased from Sigma Corp. The Coulter DNA detection kit is presented by the Central Lab of Anhui Provincial Hospital. AFP and γ-GT are provided by the Clinical Lab of No. 105 Hospital of PLA. Apoptosis-Hoechst staining kit is purchased from Beyotime Company.
(§2) 1.2 Cell Culture A549, and HpeG2 cells are stored by our lab. Cell growth condition: DMEM (from GIBICO Company) culture solution is added with 10% of calf serum (purchased from the Hangzhou Sijiqing Biological Engineering Material Co., Ltd.) to culture in a cell culture incubator (37° C., 5% CO2) with saturated humidity.
(§3) 1.3 Cell Growth and Proliferation Experiments MTT process is used. Cells in the logarithmic phase are picked and seeded on a 96-hole culture board with a cell concentration of 5×10^7/L. Each hole of the board is 200 ul. The next day after the adherence, the original solution is discarded, and the culture solution is added. The cells are divided into 1 ug/ml retinoic acid derivative groups, 5 ug/ml retinoic acid derivative groups, 10 ug/ml retinoic acid derivative groups, blank control groups, cell control groups, solvent control groups (1‰ DMSO and anhydrous ethanol) (17 in total) according to the concentrations thereof, incubated for 3d, added with MTT (5 g/L) of 20 ul/hole for incubation at 37° C. for 4 h. The original solution is carefully discarded and dried, and DMSO of 20 ul/hole is added to dissolve crystals, followed by vibrating for 10 min and determining the OD value at 570 nm. Each concentration is corresponding to 5 holes, and each group calculates the average of 3 experiments to calculate the inhibition rate to the cell growth according to the optical density (OD) average of each hole in each group and the following equation: inhibition rate %=(control hole OD570−experimental hole OD570)/control hole OD5700*100%. The process above is repeated for three times. The second experiment takes the maximum concentration (10 […]) for culture respectively for 1, 2, 3 and 7 days and repeat for three times.

A549 cells [3] = assay: Differentiation index: CEA secretory volume of A549 cells; type: cell-based; details: A549 culture supernatant, 10 ug/ml, 3 d, DMSO
Protocol: 1.6 Detection of Differentiation Index The cultured A549 cells are randomly divided into 6 10 μg/ml drug groups, cell control groups, solvent control groups (DMSO and ethanol) and 10 μg/ml fenretinide control groups (11 in total). The control groups and drug groups are cultured for 3 days to collect respective 3 tubes of cell culture solutions which are centrifugated at a speed of 4000 r/min for 5 min to take the supernatant and detect the CEA content of the kit by using enzyme kinetics and CEA detection.

HepG2 cells [4] = assay: Cell cycle and apoptosis by flow cytometry, HepG2; type: cell-based; details: HepG2, flow cytometry
A549 cells [5] = assay: Cell cycle and apoptosis by flow cytometry, A549; type: cell-based; details: A549, 10 μg/ml, 3 days, PI flow cytometry
Protocol: 1.4 Detection of Cell Cycle and Apoptosis by Flow Cytometry A549 cells in the logarithmic phase are collected, regulated with the concentrations thereof to 8×10^7/L, inoculated in a 6-hole board, cultured in an incubator (37° C. and 5% CO2). After the cells are adhered, the culture solution is discarded, and a culture solution having drugs with the corresponding concentrations is added and divided into 10 μg/ml drug groups, 10 μg/ml fenretinide groups, cell control groups, solvent control groups (1‰ DMSO and anhydrous ethanol) (11 in total). After 3 days, each group of cells is normally digested, collected, blown into single cell suspension, washed by cold PBS twice, and re-suspend by 10 μl PBS. Fixing and member breaking agents and a PI staining solution are added according to the Coulter DNA detection kit and reacted with one another at the room temperature and out of light for 30 min for machine detection. Each sample detects 10000 cells and repeats for three times, and the data are analyzed by Analysis software for the ratio during the G0-G1, S and G2-M periods and the ratio of apoptotic cells.

A549 lung cancer cells = assay: MTT cell growth and proliferation experiment, A549; type: cell-based; design: key to Inhibition Rate: (control OD570 − test OD570)/control OD570, as fraction; details: A549, MTT time gradient, 10 ug/ml; for Inhibition Rate: fraction
Protocol: as §1, §2, §3

NB4 cells = assay: Cell cycle analysis by flow cytometer, NB4; type: cell-based; design: S %: dose or concentration left out as unconfirmed; details: 72 h
Protocol: (§4) Retinoic acid derivatives and fenretinide are prepared as a storage solution of 10 mg/mL by anhydrous ethanol and stored at […] and kept out of light.
(§5) NB4 cells and K562 cells are inoculated with an initial concentration of 2*10^5/ml in the RPMI1640 culture solution having 10% of calf serum (FBS), 100 u/ml of penicillin, 100 Lg/ml of streptomycin and 2 mmol/L of glutamine for suspension culture (37° C., 5% CO2). Change the solution every 2-3 days.
(§6) For the cells above acted by the retinoic acid derivatives and fenretinide ([…]) for 72 h, about 10^6 of them are collected, washed by PBS twice, fixed by 70% of cold ethanol over 24 h, washed by PBS twice, added with 5 ug/ml of propidium iodide for staining and detected by a flow cytometer from which the data are analyzed and processed by the multi-cycle software.

K562 cells = assay: Cell cycle analysis by flow cytometer, K562; type: cell-based; design: S %: dose or concentration left out as unconfirmed; details: 72 h
Protocol: as §4, §5, §6

[6] = system: human acute promyelocytic leukaemia; details: cited from earlier work
[7] = HepG2, MTT OD 570 nm, 1 ug/ml, 3 d, solvent not given
[8] = HepG2, MTT OD 570 nm, 5 ug/ml, 3 d, solvent not given
[9] = HepG2, MTT OD 570 nm, 10 ug/ml, 3 d, solvent not given
[10] = HepG2, MTT time gradient, 10 ug/ml, 1 d
[11] = HepG2, MTT time gradient, 10 ug/ml, 2 d
[12] = HepG2, MTT time gradient, 10 ug/ml, 3 d
[13] = HepG2, MTT time gradient, 10 ug/ml, 7 d
[14] = HepG2, MTT, 1 ug/ml, 3 d, solvent not given
[15] = HepG2, MTT, 5 ug/ml, 3 d, solvent not given
[16] = HepG2, MTT, 10 ug/ml, 3 d, solvent not given
[17] = HepG2, Table 5 repeat MTT, 10 ug/ml, 3 days, DMSO

With `CC1=C(/C=C/C(C)=C/C=C/C(C)=C/C(=O)Nc2ccc(C(F)(F)F)cc2)C(C)(C)CCC1` [Example 3a-01, (4-trifluoromethylphenyl)-(all-trans)-3,7-dimethyl-9-(2,6,6-trimethyl-1-cyclohexen-1-yl)-2,4,6,8-nonatetraenoic acid amide] the “effects on AFP secretory volume (statistics, in words)” value (HepG2 cells [1]) was “meaningful in statistics”, the AFP (HepG2 cells [1]) was 13.6* ug/L and the γ-GT (HepG2 cells [2]) was 52.3 ± 1.5 U/L. The “OD Value (x ± s)” value (liver cancer HepG2 cells; [7]) was 1.13 ± 0.16, the “OD Value (x ± s)” value (liver cancer HepG2 cells; [8]) was 1.13 ± 0.45 and the “OD Value (x ± s)” value (liver cancer HepG2 cells; [9]) was 0.86 ± 0.13. For the same compound, the “OD Value (x ± s)” value (liver cancer HepG2 cells; [10]) was 1.52 ± 0.13, the “Inhibition Rate” value (liver cancer HepG2 cells; [10]) was 0.12 and the “OD Value (x ± s)” value (liver cancer HepG2 cells; [11]) was 0.71 ± 0.02. The “Inhibition Rate” value (liver cancer HepG2 cells; [11]) was 0.42, the “OD Value (x ± s)” value (liver cancer HepG2 cells; [12]) was 0.77 ± 0.03 and the “Inhibition Rate” value (liver cancer HepG2 cells; [12]) was 0.54. For the same compound, the “OD Value (x ± s)” value (liver cancer HepG2 cells; [13]) was 0.30 ± 0.08, the “Inhibition Rate” value (liver cancer HepG2 cells; [13]) was 0.77 and the “Inhibition Rate” value (liver cancer HepG2 cells; [14]) was 0.33. For the same compound, the “Inhibition Rate” value (liver cancer HepG2 cells; [15]) was 0.33, the “Inhibition Rate” value (liver cancer HepG2 cells; [16]) was 0.49 and the “OD Value (x ± s)” value (liver cancer HepG2 cells; [17]) was 0.978 ± 0.072. The “Inhibition Rate” value (liver cancer HepG2 cells; [17]) was 0.548*, the CEA (A549 cells [3]) was 2.9 µg/L and the “Apoptosis Rate (%)” value (HepG2 cells [4]) was 16.5* %. For the same compound, the “G0-G1 (%)” value (HepG2 cells [4]) was 56.3%, the “G2-M (%)” value (HepG2 cells [4]) was 4.14% and the “S %” value (HepG2 cells [4]) was 24.8%. For the same compound, the “Apoptosis Rate (%)” value (A549 cells [5]) was 17.6%, the “G0-G1 (%)” value (A549 cells [5]) was 55.6% and the “G2-M (%)” value (A549 cells [5]) was 2.41%. The “S %” value (A549 cells [5]) was 24.9%, the “OD Value (x ± s)” value (A549 lung cancer cells; 1 d) was 0.680 ± 0.055 and the “Inhibition Rate” value (A549 lung cancer cells; 1 d) was 0.258. The “OD Value (x ± s)” value (A549 lung cancer cells; 2 d) was 1.042 ± 0.046, the “Inhibition Rate” value (A549 lung cancer cells; 2 d) was 0.288 and the “OD Value (x ± s)” value (A549 lung cancer cells; 3 d) was 0.623 ± 0.006. For the same compound, the “Inhibition Rate” value (A549 lung cancer cells; 3 d) was 0.328, the “OD Value (x ± s)” value (A549 lung cancer cells; 7 d) was 1.325 ± 0.028 and the “Inhibition Rate” value (A549 lung cancer cells; 7 d) was 0.361.
In the case of `CC1=C(/C=C/C(C)=C/C=C/C(C)=C/C(=O)Nc2ccc(OC(F)(F)F)cc2)C(C)(C)CCC1` [Example 6a-01, (4-trifluoromethoxyphenyl)-(all-trans)-3,7-dimethyl-9-(2,6,6-trimethyl-1-cyclohexen-1-yl)-2,4,6,8-nonatetraenoic acid amide], the “effects on AFP secretory volume (statistics, in words)” value (HepG2 cells [1]) is reported as “meaningful in statistics”, the AFP (HepG2 cells [1]) is reported as 13.6* ug/L and the γ-GT (HepG2 cells [2]) is reported as 58.0 ± 1.5 U/L. It also gave a G1 % (NB4 cells) of 38.24%, a G2 % (NB4 cells) of 2.70% and a S % (NB4 cells) of 59.06%. For the same compound, the “OD Value (x ± s)” value (liver cancer HepG2 cells; [7]) was 0.97 ± 0.29, the “OD Value (x ± s)” value (liver cancer HepG2 cells; [8]) was 0.89 ± 0.14 and the “OD Value (x ± s)” value (liver cancer HepG2 cells; [9]) was 0.89 ± 0.30. The “OD Value (x ± s)” value (liver cancer HepG2 cells; [10]) was 1.28 ± 0.07, the “Inhibition Rate” value (liver cancer HepG2 cells; [10]) was 0.06 and the “OD Value (x ± s)” value (liver cancer HepG2 cells; [11]) was 1.55 ± 0.11. For the same compound, the “Inhibition Rate” value (liver cancer HepG2 cells; [11]) was 0.10, the “OD Value (x ± s)” value (liver cancer HepG2 cells; [12]) was 1.24 ± 0.18 and the “Inhibition Rate” value (liver cancer HepG2 cells; [12]) was 0.26. For the same compound, the “OD Value (x ± s)” value (liver cancer HepG2 cells; [13]) was 0.62 ± 0.13, the “Inhibition Rate” value (liver cancer HepG2 cells; [13]) was 0.50 and the “Inhibition Rate” value (liver cancer HepG2 cells; [14]) was 0.42. The “Inhibition Rate” value (liver cancer HepG2 cells; [15]) was 0.47, the “Inhibition Rate” value (liver cancer HepG2 cells; [16]) was 0.47 and the “OD Value (x ± s)” value (liver cancer HepG2 cells; [17]) was 1.163 ± 0.102. For the same compound, the “Inhibition Rate” value (liver cancer HepG2 cells; [17]) was 0.463*, the CEA (A549 cells [3]) was 2.9 µg/L and the “Apoptosis Rate (%)” value (HepG2 cells [4]) was 11.1%. For the same compound, the “G0-G1 (%)” value (HepG2 cells [4]) was 57.4%, the “G2-M (%)” value (HepG2 cells [4]) was 5.30% and the “S %” value (HepG2 cells [4]) was 26.7%. For the same compound, the “Apoptosis Rate (%)” value (A549 cells [5]) was 30.5%, the “G0-G1 (%)” value (A549 cells [5]) was 40.1% and the “G2-M (%)” value (A549 cells [5]) was 2.34%. The “S %” value (A549 cells [5]) was 27.9%, the G1 % (K562 cells) was 34.2% and the G2 % (K562 cells) was 9.4%. The S % (K562 cells) was 56.4%, the “OD Value (x ± s)” value (A549 lung cancer cells; 1 d) was 0.646 ± 0.019 and the “Inhibition Rate” value (A549 lung cancer cells; 1 d) was 0.296. For the same compound, the “OD Value (x ± s)” value (A549 lung cancer cells; 2 d) was 0.909 ± 0.065, the “Inhibition Rate” value (A549 lung cancer cells; 2 d) was 0.378 and the “OD Value (x ± s)” value (A549 lung cancer cells; 3 d) was 0.567 ± 0.057. For the same compound, the “Inhibition Rate” value (A549 lung cancer cells; 3 d) was 0.389, the “OD Value (x ± s)” value (A549 lung cancer cells; 7 d) was 1.243 ± 0.024 and the “Inhibition Rate” value (A549 lung cancer cells; 7 d) was 0.401.
In the case of `CC1=C(/C=C/C(C)=C/C=C/C(C)=C/C(=O)O)C(C)(C)CCC1` [ATRA, all-trans retinoic acid], the “incidence rate of increased leukocyte count” value ([6]; during the treatment of APL, reported abroad) is given as “about 30%” and the complete remission rate ([6]; human acute promyelocytic leukaemia, 5-year clinic summary) is given as 86%.
